From publication PMC5772355 (Scientific Reports, 2018)

How the values were obtained:
[1] = molecular target: T1, xCT (SLC7A11), system xc− (Mus musculus, UniProt Q9WTR6); assay: inhibition of L-[…]cystine uptake in xCT-overexpressing MEF; format: cell-based
T1 construct: coding region of murine xCT, stably overexpressed in MEF; with 4F2 heavy chain (SLC3A2)
T1 sequence (Q9WTR6 1-502): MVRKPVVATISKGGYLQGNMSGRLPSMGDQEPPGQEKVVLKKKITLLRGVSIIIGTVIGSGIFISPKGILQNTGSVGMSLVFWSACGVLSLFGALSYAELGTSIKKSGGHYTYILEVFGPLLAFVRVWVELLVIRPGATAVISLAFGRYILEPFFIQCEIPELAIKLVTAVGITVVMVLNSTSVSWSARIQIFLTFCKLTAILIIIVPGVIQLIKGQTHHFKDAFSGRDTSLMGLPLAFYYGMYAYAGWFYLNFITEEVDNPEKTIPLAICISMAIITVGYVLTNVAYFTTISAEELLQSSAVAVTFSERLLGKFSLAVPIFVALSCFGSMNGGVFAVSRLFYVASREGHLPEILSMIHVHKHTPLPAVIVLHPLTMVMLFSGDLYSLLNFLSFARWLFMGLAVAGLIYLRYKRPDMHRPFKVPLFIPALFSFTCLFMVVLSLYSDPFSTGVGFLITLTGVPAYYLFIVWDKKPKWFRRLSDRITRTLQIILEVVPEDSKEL
T1 sequence (P10852 1-526 partner): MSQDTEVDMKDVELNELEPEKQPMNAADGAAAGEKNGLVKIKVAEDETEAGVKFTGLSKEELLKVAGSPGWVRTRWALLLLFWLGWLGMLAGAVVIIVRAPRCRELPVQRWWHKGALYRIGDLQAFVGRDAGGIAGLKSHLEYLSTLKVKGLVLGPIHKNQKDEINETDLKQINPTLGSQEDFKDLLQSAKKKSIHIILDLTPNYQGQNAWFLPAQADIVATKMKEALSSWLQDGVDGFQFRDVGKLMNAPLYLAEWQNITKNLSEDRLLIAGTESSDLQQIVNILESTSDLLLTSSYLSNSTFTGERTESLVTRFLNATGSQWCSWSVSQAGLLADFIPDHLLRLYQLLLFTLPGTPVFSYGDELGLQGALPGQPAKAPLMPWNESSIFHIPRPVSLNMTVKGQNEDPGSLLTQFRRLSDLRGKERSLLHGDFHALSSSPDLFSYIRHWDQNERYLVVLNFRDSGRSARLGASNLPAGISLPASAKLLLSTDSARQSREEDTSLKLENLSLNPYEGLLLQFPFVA

[2] = molecular target: T1, xCT (SLC7A11), system xc−; assay: as above; format: cell-based; remark: listed apart in the source

SMILES | IC50 [1] [µM] | inhibition at 100 µM [2] [%]
N[C@@H](Cn1oc(=O)[nH]c1=O)C(=O)O [QA, quisqualic acid] | 15.4 | 
N[C@@H](CCC(=O)O)C(=O)O [Glu, L-glutamate] |  | ~50
CCOc1ccccc1-n1c(C(C)N2CCN(C(=O)COc3ccc(Cl)cc3)CC2)nc2ccccc2c1=O (stereo not shown) [erastin] | 1.4 | 
O=C(O)c1cc(/N=N/c2ccc(S(=O)(=O)Nc3ccccn3)cc2)ccc1O [SAS, sulfasalazine] | 26.1 | 
